According to PMC7287031 (Pharmacology Research & Perspectives, 2020):
Like-named read-outs stand apart in the source and are kept apart here. One block for each molecule: values may come before it.

How the values were obtained:
CYP2D6 = settings: ref literature search, read-out: Reported Ki or IC50 values, median (and range); cited from earlier work
CYP2C9 = settings: cited from earlier work
[1] = system: CYP enzymes that metabolise ribociclib in HLM (total metabolism; CYP-selective chemical inhibitors); experiment: Inhibition of [3H] ribociclib total metabolism in HLM by CYP- and FMO-selective inhibitors; format: in vitro ADME; settings: both, human, human liver microsomes, pH 7.4, probe [3H] ribociclib
FMO = target: FMO; set-up: method as in Zhou et al (2002); settings: ref Zhou et al (2002), read-out: Reported Ki or IC50 values; cited from earlier work
[2] = Rat ADME study: excretion, mass balance, metabolite profiling with radiolabeled ribociclib; format: in vivo; settings: rat
Procedure: (§1) ADME studies (including QWBA in pigmented and non‐pigmented rats) using radiolabeled ribociclib were conducted in rat and dog. Relevant institutional and national guides for the care and use of laboratory animals were followed.
(§2) Metabolite profiling was conducted on plasma, urine, bile, and feces samples in the rat and dog ADME studies, and further metabolite profiling on plasma and milk was conducted in a dedicated rat milk excretion study.
(§3) Plasma samples obtained from these studies were extracted with equal volumes of acetonitrile. Additional extractions of the protein pellet with acetonitrile and/or acetone were conducted as needed to maximize radioactivity recovery. Feces samples were initially extracted with two to four volumes of acetonitrile. Additional extractions of the pellet following centrifugation and removal of supernatant were conducted with acetonitrile and/or acetone as needed to maximize radioactivity recovery. Urine and bile samples were analyzed directly following centrifugation. Radioactivity recoveries following the centrifugation step were measured by LSC. Milk samples were extracted with two volumes of acetonitrile, following centrifugation and removal of supernatant, the pellets were re‐suspended in 100 µL of water and re‐extracted with 200 µL acetonitrile.
(§4) Metabolite profiling in the ADME studies was conducted using liquid chromatography‐mass spectrometry. Radioactivity profiles were generated by diversion of the majority of the post‐column flow into 96‐well yttrium silicate scintillation‐coated plates (Deepwell Lumaplates; Perkin Elmer Life and Analytical Sciences Inc), by means of Gilson FC204 fraction collectors (Gilson). Metabolites were identified by mass spectrometry (Waters QTOF operating under MassLynx 4.1) and, where feasible, by comparison with authentic reference standards.

[3] = Contribution of metabolites to total pharmacological activity in human; settings: considering in vitro measurements and in vivo exposure
[4] = Human ADME study: quantitative metabolite profiling in plasma; format: in vivo
Procedure: A plasma pool across the six healthy volunteers included in the study was prepared at the time points of 1 hour, 3 hours, 24 hours, and 48 hours post dose. For each time point, an equal volume of plasma was taken from each subject and combined. Plasma pool samples were processed by protein precipitation with acetonitrile. The protein pellet that resulted from precipitation with acetonitrile was washed further with additional aliquots of acetonitrile. All acetonitrile washes were combined and evaporated under nitrogen. For the 3‐ and 24‐hour plasma pools, the extraction procedure was slightly modified, including precipitation of the plasma proteins by addition of a 1:1 mixture of acetonitrile:methanol, followed by washing of the protein pellet with the same solvent mixture. All extracts were reconstituted with a solution of 15‐mM ammonium formate and acetonitrile (95:5 v/v). Extraction and reconstitution recoveries were measured in all four plasma samples in order to calculate and overall recovery. Quantitative metabolite profiling in plasma was accomplished using a Shimadzu Prominence high‐performance liquid chromatography (HPLC) system (Shimadzu, Columbia, MD, USA), coupled with fraction collection and analysis of total radioactivity in individual fractions using AMS (as described above). A second injection of each sample, conducted immediately after the first, was used to provide HPLC fractions for metabolite identification. The fractions identified as containing radioactivity from the AMS analysis were analyzed by HPLC coupled with high‐resolution mass spectrometry to identify the metabolites. The HPLC‐MS/MS methodology used is described below.

[5] = Dog ADME study: excretion, mass balance, metabolite profiling with radiolabeled ribociclib; format: in vivo
Procedure: as §1, §2, §3, §4

[6] = Human ADME study: quantitative metabolite profiling in urine and feces; format: in vivo; settings: pooled excreta n=6, from metabolite patterns (radio profiling)
Procedure: Average pools across the six subjects were also created by combining equal percentages (of total urine and feces excreted over the time interval) of the individual subject pools. Urine pools were analyzed directly for metabolite profiling (column recovery of a representative sample was measured), whereas feces pools were subjected to extraction. Specifically, to each aliquot of feces homogenate, two volumes of acetonitrile were added. After centrifugation, the pellet was washed further with an additional two volumes of acetonitrile. […] All washes were combined, evaporated under nitrogen, and reconstituted with a solution of 15‐mM ammonium formate (pH 3.5). This feces extract reconstitute was analyzed for metabolite profiling. Combined extraction and reconstitution (overall recovery) and column recovery were measured. […] The HPLC column used was a Phenomenex Kinetex, C18, 250 × 4.6 mm, equipped with a pre‐column of the same type (2.1 × 4.6 mm), which was placed in a column oven at 40°C. […] The HPLC gradient was as follows: initial conditions were 5% mobile phase B for 1 minute, then increased to 20% at 10 minutes post injection where it was held (isocratic) up to 20 minutes. […] The post column flow was directed to the fraction collector operated in a time‐slice mode and containing 96‐well Lumaplates (Perkin Elmer). The plates were dried at room temperature and the radioactivity was measured using a microplate scintillation counter model TopCount NXT (Perkin Elmer) instrument (up to 3 × 100‐minute counting time). […] Metabolites were identified during the same injections using data generated by the high‐resolution mass spectrometer. The molecular ions and key fragments of each drug‐related component were determined. Key fragments for each metabolite were derived from their product ion mass spectra and were used to determine the metabolite structures. Where possible, structural assignments were supported by exact mass measurement, comparison with synthetic standards and/or Hydrogen/Deuterium (H/D) exchange LC‐MS(/MS).

[7] = Human ADME study: PK of ribociclib and LEQ803 in plasma and urine (validated bioanalytical assay); format: in vivo; settings: human plasma, bioanalytical assay, single oral 600 mg, N=6; for AUC(0-inf) / AUC(0-t) / Cmax / half-life: human, plasma, po, 600 mg
Procedure: Subjects continued to fast for 4 hours after drug administration.
Plasma aliquots at each time point were subjected to protein precipitation with three volumes of acetonitrile containing 0.1% (v:v) formic acid, followed by dilution and analysis by liquid chromatography‐tandem mass spectrometry in selected reaction monitor‐positive ion mode using heated electrospray ionization as the ionization technique. For urine aliquots, six volumes of acetonitrile containing 0.1% (v:v) formic acid were added, followed by dilution and analysis in the same way as for plasma. Components were separated using a YMC‐Triart C18 (2.0 x 30 mm, 1.9 µm) column (YMC Co. Ltd.). […] Mobile phase A was 0.1% formic acid in H2O while mobile phase B was 0.1% formic acid in ACN:Isopropanol 8:2 v:v.

CYP3A = settings: cited from earlier work
CYP1A2 = settings: ref literature search, read-out: Reported Ki or IC50 values, median (and range); cited from earlier work
[8] = substrate: CN(C)C(=O)c1cc2cnc(Nc3ccc(N4CCNCC4)cn3)nc2n1C1CCCC1; experiment: Enzyme kinetics with recombinant CYP2J2 and scaling to HLM; format: in vitro ADME, human; settings: other: recombinant CYP2J2; 37.0 °C
Procedure: In vitro incubations were carried out in 100‐mM potassium phosphate buffer (pH 7.4) and 5‐mM MgCl2 with a total volume of 200 µL. Substrate and either human liver microsomes (HLM, BD Biosciences, mixed gender pool of n = 50) or recombinant human enzymes (BD Biosciences) were added and pre‐incubated for 3 minutes at 37°C. The reaction was started by addition of a fresh solution of NADPH (1 mmol/L final concentration). The samples were incubated at 37°C with agitation of 500 rpm. For incubations with CYP2A6, CYP2C9, CYP2C18, and CYP4A11, the phosphate buffer was replaced by TRIS buffer (100 mmol/L, pH 7.4) and for flavin‐containing monooxygenases (FMOs), a glycine buffer (50 mM, pH 9.5) was used.
The enzymatic reaction was stopped and the protein was precipitated by addition of an equal volume of methanol. After 30 min at −80°C, the samples were centrifuged at 30'000 x g for 15 min. The supernatant was withdrawn. Aliquots were analyzed by LSC and the supernatant was diluted with water to obtain a final solution containing less than 20% of the organic solvent. For samples of low substrate concentration, supernatants were evaporated to dryness under nitrogen, then re‐suspended in water containing less than 20% of methanol. Samples were analyzed by HPLC combined with radiodetection. […]

- IC50 [1]: > 5000 nM
Molecule: Nc1ccc(S(=O)(=O)Nc2ccnn2-c2ccccc2)cc1 [Sulfaphenazole]

Molecule: Cn1cc[nH]c1=S [Methimazole]
- Ki (FMO): 61000 nM

- metabolite as % of plasma exposure to ribociclib [2]: 38%
- ratio of AUC0-48 by validated bioanalytical assay to AUC0-48 from metabolite patterns ([4]; human plasma): 0.813
- AUC0-48h, % of total [14C]-AUC0-48 ([4]; human plasma pools n=6, from metabolite patterns): 8.60%
- metabolite exposure as % of ribociclib exposure ([4]; human plasma, AUC0-48): 19.8%
- metabolite as % of plasma exposure to ribociclib [5]: 3%
- Excretion (% of dose), Feces [6]: 13.9 % of dose
- Excretion (% of dose), Urine [6]: 3.74 % of dose
- Excretion (% of dose), Feces ([6]; listed as M4): approximately 13.9 % of dose
- Excretion (% of dose), Urine ([6]; listed as M4): approximately 3.74 % of dose
- tlast, median (range) [7]: 252 (240‐312) h
- Tmax ([7]; read-out: tmax, median (range)): 2.5 h
- AUC(0-inf) ([7]; read-out: AUCinf, arithmetic mean (CV %)): 2320 ng·h/mL
- AUC(0-inf) ([7]; read-out: AUCinf, median): 2390 ng·h/mL
- AUC(0-t) ([7]; read-out: AUClast, arithmetic mean (CV %)): 2160 ng·h/mL
- AUC(0-t) ([7]; read-out: AUClast, median): 2240 ng·h/mL
- Cmax ([7]; read-out: Cmax, arithmetic mean (CV %)): 67.6 ng/mL
- Cmax ([7]; read-out: Cmax, median): 59 ng/mL
- half-life ([7]; read-out: t½, arithmetic mean (CV %) (converted)): 91.8 h
- half-life ([7]; read-out: t½, median (converted)): 78.2 h
Molecule: CNC(=O)c1cc2cnc(Nc3ccc(N4CCNCC4)cn3)nc2n1C1CCCC1 [M4 (LEQ803)]
- contribution to total pharmacological activity in human [3]: not to have a relevant contribution to total pharmacological activity

Molecule: Cc1nc2c([nH]1)c(=O)n(C)c(=O)n2Cc1ccco1 [Furafylline]
- IC50 [1]: > 10000 nM

B1: CYP2J2 (Homo sapiens) (protein)
chain: MLAAMGSLAAALWAVVHPRTLLLGTVAFLLAADFLKRRRPKNYPPGPWRLPFLGNFFLVDFEQSHLEVQLFVKKYGNLFSLELGDISAVLITGLPLIKEALIHMDQNFGNRPVTPMREHIFKKNGLIMSSGQAWKEQRRFTLTALRNFGLGKKSLEERIQEEAQHLTEAIKEENGQPFDPHFKINNAVSNIICSITFGERFEYQDSWFQQLLKLLDEVTYLEASKTCQLYNVFPWIMKFLPGPHQTLFSNWKKLKLFVSHMIDKHRKDWNPAETRDFIDAYLKEMSKHTGNPTSSFHEENLICSTLDLFFAGTETTSTTLRWALLYMALYPEIQEKVQAEIDRVIGQGQQPSTAARESMPYTNAVIHEVQRMGNIIPLNVPREVTVDTTLAGYHLPKGTMILTNLTALHRDPTEWATPDTFNPDHFLENGQFKKREAFMPFSIGKRACLGEQLARTELFIFFTSLMQKFTFRPPNNEKLSLKFRMGITISPVSHRLCAVPQV
notes: purchased BD Biosciences
- Km [8]: 11.8 µM
